According to US8663651B2, “T-140 peptide analogs having CXCR4 super-agonist activity for immunomodulation” (Biokine Therapeutics Ltd., priority 2006, dated 2014):
Square brackets hold non-standard residues; d marks the D form. * marks the point of attachment. Benzoyl(4-F) = O=C(c1ccc(F)cc1)*; Cit = NC(=O)NCCC[C@H](N)C(=O)O

Tests used:
Format in all cases: cell-based, human
[1] = tested on: PC3-CXCR4.5 cells; experiment: MIP3α secretion by PC3-CXCR4.5 cells (CXCR4-overexpressing clone), assessed by ELISA; conditions: for induced MIP3α secretion after silencing of CXCR4 expression: CXCL12 500 ng/ml or 4F-benzoyl-TN14003 8 μM for additional 48 hours
Method: (§1) In this example, regulation of the chemokine MIP3α (macrophage inflammatory protein 3α) was examined. […] In FIG. 1B, PC3 (left panel) and PC3-CXCR4.5 (right panel) cells were stimulated with the indicated concentrations of CXCL12 for 48 hours and MIP3α secretion was assessed by ELISA. The results represent the average of triplicates±STDEV.
(§2) The effects of the CXCR4 antagonist AMD3100 and of 4F-benzoyl-TN14003 (4FB-TN14003), hitherto known as a CXCR4 antagonist, on MIP3α secretion were further tested. […] In FIG. 1C, CXCR4 signaling in PC3 (left panel) and PC3-CXCR4.5 (right panel) cells was inhibited with anti-CXCL12 antibodies (αCXCL12) and Pertussis toxin (PTX) treatments alone or in combination with CXCL12, as indicated. Secretion of MIP3α was assessed by ELISA. The results represent the average of triplicates±STDEV.
(§3) The Dicer-substrate siRNA duplexes of CXCR4 (NCBI accession number NM 003467): sense 5′-[…]-3′ (SEQ ID NO:78), antisense 5′ […]-3′ (SEQ ID NO:79) were purchased from IDT, Coralville, Iowa. The non-specific siRNA duplexes were used as a control. PC3-CXCR4.5 cells were transfected with 200 nmol/L siRNA in serum-free medium using Oligofectamine reagent (Invitrogen, Carlsbad, Calif., USA), according to the manufacturer's instructions. To determine the efficiency of CXCR4RNA interference, at 48 hours post-transfection, the cells were analyzed for CXCR4 expression on mRNA and cell-surface levels.
In FIG. 2C, control (gray) and CXCR4 (black) siRNA-transfected PC3-CXCR4.5 cells at 48 hours post-transfection were incubated with CXCL12 500 ng/ml and 4F-benzoyl-TN14003 8 μM (4FB-TN14003) for additional 48 hours. MIP3α secretion was assessed by ELISA. The results represent the average of triplicates±STDEV.

[2] = tested on: NB4; experiment: MIP3α secretion by NB4 cells, ELISA; conditions: following stimulation
Method: (§4) The expression of MIP3α in a range of carcinoma cell lines and normal epithelial cells was tested by ELISA. […] Bone marrow endothelial cells, BMEC, glioblastoma cells U87, breast carcinoma cells MDA231, also were negative for MIP3α secretion. […] In addition, MIP3α was also secreted by normal keratinocytes (FIG. 4D) and primary blasts from peripheral blood of patients with AML (FIG. 4C). In FIG. 4, acute promyelocytic leukemia cell lines NB4 (FIG. 4A) and HL60 (FIG. 4B), primary peripheral blasts from the patient with acute myelocytic leukemia (FIG. 4C) and normal keratinocytes (FIG. 4D) were stimulated with the indicated concentration of CXCL12 for 48 hours. The secretion of MIP3α was assayed by ELISA. The results of experiments with NB4, HL60 and keratinocytes represent the average of triplicates±STDEV. […] Secretion of MIP3α was assessed by ELISA. […] The results represent the average of triplicates±STDEV.

[3] = tested on: normal keratinocytes; experiment: MIP3α secretion by normal keratinocytes, ELISA; conditions: following stimulation
Method: as §4

[4] = tested on: HL-60; experiment: MIP3α secretion by HL-60 cells, ELISA; conditions: following stimulation
Method: as §4

[5] = tested on: PC3 cells; experiment: MIP3α secretion by PC3 cells, assessed by ELISA
Method: as §1, §2

[6] = tested on: CXCR4; experiment: CXCR4 silencing by siRNA in PC3-CXCR4.5 cells (RT-PCR and FACS); conditions: 200 nmol/L siRNA, 48 hours post-transfection
Method: as §3
In FIG. 2A, PC3-CXCR4.5 cells 48 hours following the transfection with CXCR4-specific siRNA were stained for the control and CXCR4 antibodies and evaluated by FACS. Left panel, non-transfected cells; middle panel, cells transfected with a control (non-specific) siRNA; right panel, cells transfected with a siRNA directed to CXCR4 (CXCR4 siRNA). Cells were stained for the control (IgG2a-PE, full histograms) and CXCR4 antibodies (IgG2a-12G5, empty histograms).
In FIG. 2B, RT-PCR analysis of CXCR4 of the siRNA-transfected PC3-CXCR4.5 cells 48 hours following the transfection is presented. […] Gene expression was determined using primers specific to CXCR4, or to the housekeeping gene β-actin as a control. […]

[7] = CXCR4 siRNA-transfected PC3-CXCR4.5 cells

Compound	induced MIP3α secretion after silencing of CXCR4 expression [1, 7]	MIP3α secretion [2]	MIP3α secretion [3]	MIP3α secretion [4]	induction of MIP3α secretion in an agonist manner ([1]; PC3-CXCR4.5 cells)	other results
CXCL12: chemokine, CXCR4's only natural ligand	inhibited	increased	increased	increased	–	extent of MIP3α secretion induction compared with 4F-benzoyl-TN14003 ([1]; CXCR4-expressing cell lines (general statement)): to a lesser extent than 4F-benzoyl-TN14003; MIP3α secretion ([1]; PC3-CXCR4.5 cells stimulated with increasing doses of CXCL12 for 48 hours): increased the secretion of MIP3α; MIP3α secretion ([5]; PC3 cells stimulated with increasing doses of CXCL12 for 48 hours): increased the secretion of MIP3α
Pertussis toxin [reference compound]	–	–	–	–	–	MIP3α secretion ([1]; PC3-CXCR4.5 cells, in combination with CXCL12): did not demonstrate an inhibitory effect on the level of MIP3α; MIP3α secretion ([1]; PC3-CXCR4.5 cells, treatment alone): secretion of MIP3α was decreased; MIP3α secretion ([5]; PC3 cells, treatment alone or in combination with CXCL12): effectively inhibited the secretion of MIP3α
siRNA specific for CXCR4: Dicer-substrate siRNA duplexes of CXCR4 (SEQ ID NO:78 sense, SEQ ID NO:79 antisense), purchased from IDT (sense UAAAAUCUUCCUGCCCACCAUCUAC; antisense GUAGAUGGUGGGCAGGAAGAUUUUAUU; Dicer-substrate duplex, purchased, chemistry not given here) [reference compound]	–	–	–	–	–	CXCR4 mRNA and cell surface expression [6]: reduced CXCR4 mRNA and cell surface expression; spontaneous MIP3α secretion after silencing of CXCR4 expression [1, 7]: inhibited the spontaneous
c1cc(CN2CCCNCCNCCCNCC2)ccc1CN1CCCNCCNCCCNCC1 [AMD3100, reference compound]	–	–	–	–	but not AMD3100 induced	–
4F-benzoyl-Arg-Arg-Nal-Cys-Tyr-Cit-Lys-DLys-Pro-Tyr-Arg-Cit-Cys-Arg-NH2 ({Benzoyl(4-F)}-RR[Nal]CY[Cit]K[dK]PYR[Cit]CR-NH2; cysteine pairing not given here) [4F-benzoyl-TN14003]	inhibited	increased	increased	increased	induced in both cell lines MIP3α secretion in an agonist manner	mode of action on CXCR4 ([1]; concluded from CXCR4-dependent MIP3α secretion in PC3-CXCR4.5 cells): super agonist for CXCR4; induction of MIP3α secretion in an agonist manner ([5]; PC3 cells): induced in both cell lines MIP3α secretion in an agonist manner
